# Like-named read-outs stand apart in the source and are kept apart here. No end group written: not given here.
# B1: monomeric CTLA-2β: monomeric form of recombinant CTLA-2β, mass 12.8 kd, reverse-phase purified (protein, UniProt P12400 1-113, looked up)
# Protein CTLA-2-beta: MMSAAPSPDPSLDNEWKEWKTTFAKAYSLDEERHRRLMWEENKKKIEAHNADYERGKTSFYMGLNQFSDLTPEEFRTNCCGSSMCRGEMAPDLPEYEDLGKNSYLTPGRAQPE
# Tests used:
# [1] = tested on: cartilage proteoglycan degradation; conditions: 100 μM; cited from earlier work
# [2] = molecular target: T1, human liver Cathepsin L (Homo sapiens, UniProt P07711); assay: Cathepsin L fluorescence assay (hydrolysis of Z-Phe-Arg-AMC); format: biochemical
# T1 construct: from tissue; host or cells: human liver
# T1 sequence (P07711 114-288 limits assumed): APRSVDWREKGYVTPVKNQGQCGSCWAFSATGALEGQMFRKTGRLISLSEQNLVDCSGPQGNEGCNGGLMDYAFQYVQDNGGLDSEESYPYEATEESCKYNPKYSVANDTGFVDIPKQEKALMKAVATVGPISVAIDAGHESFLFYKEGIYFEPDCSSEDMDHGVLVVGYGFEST
# T1 sequence (P07711 292-333 limits assumed): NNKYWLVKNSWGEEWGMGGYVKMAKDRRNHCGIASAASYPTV
# Method: A fluorescence based assay was set up according to Barrett and Kirschke (Barrett et al., 1981, Meth. in Enz., 80:535).
# The enzyme sample was diluted with 750 μl of assay buffer (340 mM sodium acetate--60 mM acetic acid--4 mM disodium EDTA, pH 5.5 and 8 mM DTT added fresh) and various concentrations of CTAL-2β (a final concentration of 5-50 nM), was added. After an incubation period of 6 minutes at room temperature, 1500 μl of 0.1% Brij 35 was added. The substrate Z-Phe-Arg-AMC (AMC is aminomethyl-coumarin) was added at a final concentration of either 2.5 μM or 5.0 μM.
# The fluoresence of the free aminomethyl-coumarin was measured in an SLM 4800S fluorimeter by excitation at 370 nm and emission at 432 nm over a six minute time period. […] In order to calculate the velocities, a linear least squares analysis was performed over the initial linear part of the data.
# The Ki value is equal to the negative of the X-axis intercept that gives the same velocity at the different substrate concentrations if there is competitive inhibition (Dixon et al., 1979, Enzymes, 3rd Ed., Academic Press, New York, page, 365).
# These peptides were tested for inhibition of Cathepsin L activity using the assays described previously. Briefly, Cathepsin L (19 pM final as determined by active site titration using E-64, Barret & Kirschke, 1991) was added to 750 μL of assay buffer consisting of […] sodium acetate--60 mM acetic acid (pH 5.5), 4 mM disodium EDTA, and 8 mM DTT. Peptides were added at concentrations ranging from on to 35 μM. […] The fluorescence of the free aminomethylcoumarin was measured in an SLM 4800s fluorimeter at excitation of 370 nm and an emission at 432 nm over a 6 minute time period. Fluorence was converted to μM AMC released by using a standard curve generated by plotting μM AMC vs. fluorescence, and plotted vs. time. […] The i.c. 50 values were determined from Dixon plots of the form V-/V+ (velocity without peptide/velocity with peptide) vs. peptide concentration. […]
# [3] = tested on: proteoglycan release from articular cartilage explants; assay: Micro organ culture assay (MOCA): IL-1 induced proteoglycan release from articular cartilage explants; format: cell-based, calf; conditions: p117 10 μM (best concentration); IL-1 alpha 50 U/ml
# From the text: The assay system used for testing the peptides for inhibitory activity of proteolglycan release is a micro organ culture assay (MOCA). Papain; cetyl pyridinium chloride and chondroitin sulfate type C was purchased from Sigma Chemical Co. (St. Louis, MO). Interleukin 1 alpha was purchased from Collaborative Research. ABCase, chrondroitinase, ABC lyase, and keratanase were obtained from ICL Na^35 SO4 was purchased from NEN.
# Articular cartilage explants from calk knee joints were maintained in culture in DMEM medium containing 20 μCi/ml Na ^35 SO4 for 48 hours for the incorporation of label into newly synthesized proteoglycan (PG). The radiolabelled medium was then removed, the radiolabelled explants washed 3×30 ml cold DMEM and placed into a 96 well plate with or without IL-1 (Interleukin-1 alpha, 50 U/ml) and various concentrations of p117. The explants were incubated first for 24 hours in the presence of IL-1 in order to ensure initiation of IL-1 indicated auto-catalysis prior to the addition of various metalloprotease inhibitors for an additional 72 hours.
# The newly synthesized radiolabelled proteoglycans released during the cultivation period were subjected to enzymatic digestion with papain. […] The filter was dried and counted after addition of 10 mls of scintillation cocktail (scintillant).
# [4] = molecular target: papain (Carica papaya, UniProt P00784); conditions: read-out: i.c. 50 in Papain Assay; substrate Z-Phe-Arg-AMC; papain 33.3 ng/ml; Dixon plot V-/V+ vs. I
# Sequence of papain (P00784 134-345): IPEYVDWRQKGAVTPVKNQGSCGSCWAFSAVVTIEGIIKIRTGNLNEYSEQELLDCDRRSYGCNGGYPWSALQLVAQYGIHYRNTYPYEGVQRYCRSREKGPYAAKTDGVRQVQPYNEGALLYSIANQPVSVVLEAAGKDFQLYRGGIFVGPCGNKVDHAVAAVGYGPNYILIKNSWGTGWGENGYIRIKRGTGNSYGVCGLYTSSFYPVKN
# Method: The fluorescence was measured and the i.c. 50 was determined.
molecule,measurement,setting,value
"CC(C)C[C@H](NC(=O)[C@H]1O[C@@H]1C(=O)O)C(=O)NCCCCN=C(N)N (relative stereo) [E64, trans-epoxysuccinyl L-leucylamido-(4-guanido)butane]",inhibition of IL-1 stimulated cartilage proteoglycan degradation,[1],did not work
CC(C)CCNC(=O)[C@H](CC(C)C)NC(=O)[C@H]1O[C@@H]1C(=O)O [Ep475],inhibition of IL-1 stimulated cartilage proteoglycan degradation,[1],did not work
CRGEMAPDLPEYEDLG [p092],IC50,"[2]; Cathepsin L 19 pM, 5.0 μM Z-Phe-Arg-NMec (AMC), 6 minute incubation at 25° C., read-out: i.c. 50 (synthetic peptides, Cathepsin L)",41000 nM
ENKKKIEAHNADYERGKTSFC [P089],inhibition of Cathepsin L at 10 uM peptide,"[2]; peptide 10 uM, printed in the i.c. 50 column",25%
YSLDEERHRRLMWEENKKKIEAH [p117],% inhibition of proteoglycan release,[3],about 30%
B1,IC50,"[2]; reverse-phase purified CTLA-2β, Dixon plot V-/V+ vs. I, substrate Z-Phe-Arg-AMC, read-out: i.c. 50 in Cathepsin L Assay",18.2 nM
same,IC50,[4],14 nM

# Reference: patent publication US5962633A, “Cytotoxic T-lymphocyte antigen as cysteine protease inhibitor” (Bayer Corporation, priority 1995, dated 1999)
